Where “and” joins values, the source holds several entries; their conditions need not be identical. Identical values can stand only once.
What was measured:
human hepatocytes = experiment: Cell viability after CYP induction treatment (MTS); conditions: controls: 50 μM OME, 1,000 μM phenobarbital, 50 μM RIF, 10 μM flumazenil, 72 h
Protocol: Plateable and inducible cryopreserved human hepatocytes were thawed and isolated in human hepatocyte thawing medium. […] After attachment (4 hours), the medium was changed to fresh hepatocyte culture medium for overnight cell recovery. […] A positive control (100 μM chlorpromazine) was treated in parallel. […] The absorbance of formazan, which is proportional to the number of viable cells, was measured spectrophotometrically using the CellTiter 96® AQueous One Solution Cell Proliferation Assay (MTS).
After the CYP induction treatment, the cells were used for cell viability assay. The viability of cells (expressed as the percentage of MTS absorbance relative to vehicle control) was measured as described herein.

CYP2B6 mRNA = experiment: Induction of CYP2B6 mRNA in human hepatocytes (qPCR); conditions: controls: 1,000 μM phenobarbital, 10 μM flumazenil, 72 h
Protocol: Plateable and inducible cryopreserved human hepatocytes were thawed and isolated in human hepatocyte thawing medium.
All experiments were performed in triplicate.
After induction treatment, CYP mRNA expression was measured by qPCR. Total RNA was isolated from the treated cells using the RNeasy® mini kit (Qiagen, Valencia, Calif., USA) and treated with RNase-free DNase (Qiagen) following the manufacturer's protocols. The concentration of RNA was determined using a Qubit® Fluorometer with a Qubit RNA HS assay kit (Invitrogen). cDNA was synthesized from up to 1 μg of the total RNA harvested from the cells using a QuantiTect® RT kit (Qiagen). Analysis of CYP gene expression by qPCR (Table 3) was performed using the LightCycler® 480 II System (Roche Diagnostics Corporation, Indianapolis, Ind., USA).
Relative mRNA was expressed as the fold-increase calculated from the normalized mRNA level (2^−ΔΔCt) relative to vehicle control. The percentage of mRNA fold-increase relative to positive control was calculated using the following equation:
% Induction relative to positive control=100×(mRNATA−mRNAvehicle)/(mRNApositive control−mRNAvehicle)

CYP2C9 = CYP2C9 (Homo sapiens, UniProt P11712); experiment: in vitro; conditions: microsomes; for % of Control Enzyme Activity: 30 min, pH 7.4
Protocol: CYP TDI was evaluated by a 30-minute pre-incubation of the TA with HLM in the presence and absence of NADPH followed by the CYP enzyme activity assay. […] The total organic solvent content in the final incubation was less than 1% (DMSO ≤0.1%, other organic solvent ≤1%). The CYP reactions were initiated by adding an individual CYP probe substrate with (when NADPH was not added in the pre-incubation step) or without (when NADPH was added in the pre-incubation step) the addition of NADPH (1 mM). The reaction mixture was incubated at 37° C. for 10-30 minutes depending on the individual CYP isoform (Table 24). The reaction was terminated with ice-cold acetonitrile (ACN) containing an internal standard (IS, stable isotope-labeled CYP probe metabolite). Negative (vehicle) controls were conducted using the incubation mixture without the TA. Positive controls were performed in parallel using known CYP time-dependent inhibitors. […] The formation of individual CYP probe metabolites was determined by LC-MS/MS.
The enzyme activity was expressed as the peak area ratio of CYP probe metabolite to IS, measured by LC-MS/MS.

BCRP = molecular target: T1, BCRP (Homo sapiens, UniProt Q9UNQ0); experiment: BCRP IC50 assessment, bidirectional cladribine transport in BCRP-MDCK cells; conditions: BCRP-MDCK cells, 10 μM cladribine alone or + TUDCA/PB Solution or 0.5 μM Ko143; single replicates
T1 sequence (Q9UNQ0 1-655): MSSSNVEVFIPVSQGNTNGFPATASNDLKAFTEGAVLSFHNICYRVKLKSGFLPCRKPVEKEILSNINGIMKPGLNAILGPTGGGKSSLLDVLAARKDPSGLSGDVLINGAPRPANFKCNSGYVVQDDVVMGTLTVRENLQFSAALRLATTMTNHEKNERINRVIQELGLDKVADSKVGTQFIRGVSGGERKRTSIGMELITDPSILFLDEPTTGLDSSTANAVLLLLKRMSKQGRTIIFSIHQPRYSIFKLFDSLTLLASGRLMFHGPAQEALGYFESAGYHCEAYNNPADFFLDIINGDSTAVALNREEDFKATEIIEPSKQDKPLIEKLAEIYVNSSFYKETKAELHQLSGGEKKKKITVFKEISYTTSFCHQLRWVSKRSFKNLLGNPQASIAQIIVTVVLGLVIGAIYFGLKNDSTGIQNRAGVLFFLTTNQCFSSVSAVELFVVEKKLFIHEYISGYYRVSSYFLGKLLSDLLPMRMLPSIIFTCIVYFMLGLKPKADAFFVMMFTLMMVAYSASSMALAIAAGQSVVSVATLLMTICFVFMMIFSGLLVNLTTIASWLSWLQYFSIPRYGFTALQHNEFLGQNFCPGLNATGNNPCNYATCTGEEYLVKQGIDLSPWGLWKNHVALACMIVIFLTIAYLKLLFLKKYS
Protocol: (§1) After 30 minutes, the pre-incubation solution was aspirated.

P-gp and BCRP = P-gp and BCRP substrate assessment, bidirectional permeability in C2BBe1 cells; conditions: for AP-to-BL Papp / BL-to-AP Papp / Papp A→B at 10 µM / Papp B→A at 10 µM: C2BBe1 cells, 10 μM probe; for Papp A→B at 10 µM / recovery at 10 μM / Papp B→A at 10 µM: human; for Papp A→B at 10 µM: Caco-2, pH 7.4, AP-to-BL Papp; for Papp B→A at 10 µM: Caco-2, pH 7.4, BL-to-AP Papp
Protocol: The P-gp and BCRP substrate assessment was conducted in C2BBe1 cell monolayers. […] LY was co-dosed with each dosing solution at a nominal concentration of 200 μM.
The cell culture medium was aspirated, and the cell monolayers were rinsed once with HBSSg_7.4. […] For receiver samples, aliquots (300 μL) were taken at pre-selected time points. […] For donor samples, aliquots (50 μL) were taken at pre-selected time points without replacement.

P-gp [1] = molecular target: T2, P-gp (Homo sapiens, UniProt P08183); experiment: P-gp IC50 assessment, bidirectional digoxin transport in MDR1-MDCK cells
P-gp [2] = molecular target: T2, P-gp; experiment: P-gp IC50 assessment, bidirectional digoxin transport in C2BBe1 cells
Protocol: as §1

[3] = pH 7.4, % of Control Enzyme Activity
[4] = batch used with Sol_1, Sol_3, and Sol_4, single replicates
[5] = batch used with Sol_2, single replicates
[6] = batch used with Sol_1, Sol_3, and Sol_4, Average

T2 sequence (P08183 whole entry): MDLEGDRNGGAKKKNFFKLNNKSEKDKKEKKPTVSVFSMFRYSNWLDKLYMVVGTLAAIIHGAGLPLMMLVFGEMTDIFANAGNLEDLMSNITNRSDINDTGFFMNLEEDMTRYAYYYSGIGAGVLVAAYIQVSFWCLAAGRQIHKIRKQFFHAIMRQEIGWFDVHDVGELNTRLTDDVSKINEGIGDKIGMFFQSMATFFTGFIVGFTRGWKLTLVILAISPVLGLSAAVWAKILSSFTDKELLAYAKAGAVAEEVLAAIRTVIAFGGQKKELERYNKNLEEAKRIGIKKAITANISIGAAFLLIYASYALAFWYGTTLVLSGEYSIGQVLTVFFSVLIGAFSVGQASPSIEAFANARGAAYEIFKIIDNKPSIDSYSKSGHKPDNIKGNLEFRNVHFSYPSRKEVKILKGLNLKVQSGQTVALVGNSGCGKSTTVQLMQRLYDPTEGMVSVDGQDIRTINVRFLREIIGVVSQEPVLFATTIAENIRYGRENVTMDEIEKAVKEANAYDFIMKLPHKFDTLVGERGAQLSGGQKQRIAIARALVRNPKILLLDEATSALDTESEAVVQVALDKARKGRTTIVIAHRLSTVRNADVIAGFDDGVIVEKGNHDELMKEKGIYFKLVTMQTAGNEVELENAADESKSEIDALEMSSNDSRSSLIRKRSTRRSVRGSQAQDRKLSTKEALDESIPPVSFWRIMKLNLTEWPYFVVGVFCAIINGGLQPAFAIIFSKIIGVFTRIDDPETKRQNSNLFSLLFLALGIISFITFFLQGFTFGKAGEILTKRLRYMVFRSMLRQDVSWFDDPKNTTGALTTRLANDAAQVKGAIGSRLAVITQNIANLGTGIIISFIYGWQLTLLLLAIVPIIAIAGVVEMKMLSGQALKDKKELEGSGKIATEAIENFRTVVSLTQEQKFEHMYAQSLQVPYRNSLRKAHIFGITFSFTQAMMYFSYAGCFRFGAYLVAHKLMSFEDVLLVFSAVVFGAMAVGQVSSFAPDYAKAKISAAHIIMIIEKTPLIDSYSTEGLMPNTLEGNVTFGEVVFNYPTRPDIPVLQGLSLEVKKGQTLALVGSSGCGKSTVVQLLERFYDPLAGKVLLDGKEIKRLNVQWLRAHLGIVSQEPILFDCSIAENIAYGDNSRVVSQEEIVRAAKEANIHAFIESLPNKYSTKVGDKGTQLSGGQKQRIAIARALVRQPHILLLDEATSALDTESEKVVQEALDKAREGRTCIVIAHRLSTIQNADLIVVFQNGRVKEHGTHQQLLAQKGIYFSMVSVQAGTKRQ
CYP2C9, sequence (P11712 whole entry, canonical isoform): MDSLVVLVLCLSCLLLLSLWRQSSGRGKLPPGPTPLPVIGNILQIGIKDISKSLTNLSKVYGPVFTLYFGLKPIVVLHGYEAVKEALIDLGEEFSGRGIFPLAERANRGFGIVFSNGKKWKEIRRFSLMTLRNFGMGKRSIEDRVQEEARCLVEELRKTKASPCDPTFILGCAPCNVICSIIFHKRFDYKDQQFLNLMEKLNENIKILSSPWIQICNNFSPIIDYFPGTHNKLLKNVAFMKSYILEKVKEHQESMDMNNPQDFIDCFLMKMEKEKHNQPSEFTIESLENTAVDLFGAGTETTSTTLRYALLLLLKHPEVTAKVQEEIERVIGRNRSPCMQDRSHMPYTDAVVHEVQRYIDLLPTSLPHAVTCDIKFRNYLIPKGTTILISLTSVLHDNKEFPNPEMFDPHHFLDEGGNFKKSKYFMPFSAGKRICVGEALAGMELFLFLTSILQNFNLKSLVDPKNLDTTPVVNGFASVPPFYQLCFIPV

## CCC1(c2ccccc2)C(=O)NC(=O)NC1=O [Phenobarbital, phenobarbital]
Human hepatocytes; donor 1
  % MTS Absorbance Relative to Vehicle Control: 97.7%
  Formazan Absorbance (n = 6) Mean: 0.417
Human hepatocytes; donor 2
  % MTS Absorbance Relative to Vehicle Control: 98.8%
  Formazan Absorbance (n = 6) Mean: 0.504
Human hepatocytes; donor 3
  % MTS Absorbance Relative to Vehicle Control: 108%
  Formazan Absorbance (n = 6) Mean: 0.320
CYP2B6 mRNA; donor 1
  CYP2B6 mRNA % Induction Relative to Positive Control: 100%
  CYP2B6 mRNA Fold-increase (n = 3) Mean: 21.8 fold
CYP2B6 mRNA; donor 2
  CYP2B6 mRNA % Induction Relative to Positive Control: 100%
  CYP2B6 mRNA Fold-increase (n = 3) Mean: 39.6 fold
CYP2B6 mRNA; donor 3
  CYP2B6 mRNA % Induction Relative to Positive Control: 100%
  CYP2B6 mRNA Fold-increase (n = 3) Mean: 7.36 fold

## O=C(O)COc1ccc(C(=O)c2cccs2)c(Cl)c1Cl [Tienilic acid]
CYP2C9; 10 µM
  % of Control Enzyme Activity: 11.7%
CYP2C9; 30 µM
  % of Control Enzyme Activity: 9.64%
CYP2C9; [3]
  activity at 30 min, 10 µM: 22.2%
  activity at 30 min, 30 µM: 16.2%

## Nc1nc(Cl)nc2c1ncn2[C@H]1C[C@H](O)[C@@H](CO)O1 [cladribine]
BCRP
  BL-to-AP Papp of cladribine: 15.5 10^−6 cm/s
P-gp and BCRP; [4]
  AP-to-BL Papp: 0.549 10^−6 cm/s and 0.580 10^−6 cm/s
  BL-to-AP Papp: 13.3 10^−6 cm/s and 13.0 10^−6 cm/s
  Papp A→B at 10 µM: 0.37 ×10⁻⁶ cm/s
  Papp B→A at 10 µM: 14.1 ×10⁻⁶ cm/s
P-gp and BCRP; [5]
  AP-to-BL Papp: 0.612 10^−6 cm/s and 0.554 10^−6 cm/s
  BL-to-AP Papp: 12.4 10^−6 cm/s and 13.1 10^−6 cm/s
  Papp A→B at 10 µM: 0.778 ×10⁻⁶ cm/s
  Papp B→A at 10 µM: 12.8 ×10⁻⁶ cm/s
P-gp and BCRP; [6]
  Papp A→B at 10 µM: 0.5 ×10⁻⁶ cm/s
  Papp B→A at 10 µM: 13.5 ×10⁻⁶ cm/s
P-gp and BCRP; batch used with Sol_2, Average
  Papp A→B at 10 µM: 0.648 ×10⁻⁶ cm/s
  Papp B→A at 10 µM: 12.8 ×10⁻⁶ cm/s
P-gp and BCRP; Caco-2, pH 7.4, AP-to-BL Recovery
  recovery at 10 μM: 95.3%
P-gp and BCRP; Caco-2, pH 7.4, BL-to-AP Recovery
  recovery at 10 μM: 92.9%

## C/C=C/C[C@@H](C)C(=O)[C@H]1C(=O)N[C@@H](C(C)C)C(=O)N(C)CC(=O)N(C)[C@@H](CC(C)C)C(=O)N[C@@H](C(C)C)C(=O)N(C)[C@@H](CC(C)C)C(=O)N[C@@H](C)C(=O)N[C@H](C)C(=O)N(C)[C@@H](CC(C)C)C(=O)N(C)[C@@H](CC(C)C)C(=O)N(C)[C@@H](C(C)C)C(=O)N1C [valspodar, reference compound]
P-gp [1]; 10 μM Digoxin + 1 μM Valspodar, MDR1-MDCK cells
  Percent Inhibition (P-gp): 99.9%
P-gp [1]; human, MDR1-MDCK cell monolayers on Transwell plates, pH 7.4, probe digoxin (10 μM)
  inhibition at 1 μM: 99.9%
P-gp [2]; C2BBe1 cells, 10 μM digoxin + TUDCA/PB Solution or 1 μM valspodar
  Percent Inhibition (P-gp, digoxin efflux): 99.3%
P-gp [2]; human, pH 7.4
  inhibition at 1 μM: 99.3%

From patent US20230277630A1, “METHODS AND COMPOSITIONS FOR TREATING AMYOTROPHIC LATERAL SCLEROSIS” (Amylyx Pharmaceuticals, Inc., priority 2022, published 2023)
